ChEMBL document CHEMBL3046213, “Repellent, insecticidal and phytotoxic activities of isoalantolactone from Inula racemosa” (Crop Prot, 2006)

Tests used:
Triticum aestivum [1] = assay: Phytotoxicity in Triticum aestivum (wheat) assessed as germination rate at 500 ug/ml pre-soaked for 30 min measured after 72 hr relative to acetone-treated control; type: organism-based; conditions: in vivo
Triticum aestivum [2] = assay: Phytotoxicity in Triticum aestivum (wheat) assessed as germination rate at 500 ug/ml pre-soaked for 30 min measured after 48 hr relative to acetone-treated control; type: organism-based; conditions: in vivo
Triticum aestivum [3] = assay: Phytotoxicity in Triticum aestivum (wheat) assessed as germination rate at 500 ug/ml pre-soaked for 30 min measured after 24 hr relative to acetone-treated control; type: organism-based; conditions: in vivo
Sitophilus oryzae [4] = assay: Insecticidal activity against Sitophilus oryzae (rice weevil) assessed as increase in mortality after 5 to 20 days by food poison technique; type: functional, organism-based
Sitophilus oryzae [5] = assay: Insecticidal activity against Sitophilus oryzae (rice weevil) assessed as mortality after 20 days by food poison technique; type: functional
Sitophilus oryzae [6] = assay: Insecticidal activity against Sitophilus oryzae (rice weevil) assessed as mortality after 15 days by food poison technique; type: functional
Sitophilus oryzae [7] = assay: Insecticidal activity against Sitophilus oryzae (rice weevil) assessed as mortality after 5 days by food poison technique; type: functional
Sitophilus oryzae [8] = assay: Insecticidal activity against Sitophilus oryzae (rice weevil) assessed as mortality after 10 days by food poison technique; type: functional
Sitophilus oryzae [9] = assay: Insecticidal activity against Sitophilus oryzae (rice weevil) assessed as mortality at 0.05 ug/g after 20 days by food poison technique relative to acetone-treated control; type: functional
Sitophilus oryzae [10] = assay: Insecticidal activity against Sitophilus oryzae (rice weevil) assessed as mortality at 0.05 ug/g after 15 days by food poison technique relative to acetone-treated control; type: functional
Sitophilus oryzae [11] = assay: Insecticidal activity against Sitophilus oryzae (rice weevil) assessed as mortality at 0.05 ug/g after 10 days by food poison technique relative to acetone-treated control; type: functional
Sitophilus oryzae [12] = assay: Insecticidal activity against Sitophilus oryzae (rice weevil) assessed as mortality at 0.05 ug/g after 5 days by food poison technique relative to acetone-treated control; type: functional
Sitophilus oryzae [13] = assay: Insecticidal activity against Sitophilus oryzae (rice weevil) assessed as mortality at 3000 ug/g after 20 days by food poison technique relative to acetone-treated control; type: functional
Sitophilus oryzae [14] = assay: Insecticidal activity against Sitophilus oryzae (rice weevil) assessed as mortality at 3000 ug/g after 15 days by food poison technique relative to acetone-treated control; type: functional
Sitophilus oryzae [15] = assay: Insecticidal activity against Sitophilus oryzae (rice weevil) assessed as mortality at 3000 ug/g after 10 days by food poison technique relative to acetone-treated control; type: functional
Sitophilus oryzae [16] = assay: Insecticidal activity against Sitophilus oryzae (rice weevil) assessed as mortality at 3000 ug/g after 5 days by food poison technique relative to acetone-treated control; type: functional
Sitophilus oryzae [17] = assay: Insecticidal activity against Sitophilus oryzae (rice weevil) assessed as mortality at 2000 ug/g after 20 days by food poison technique relative to acetone-treated control; type: functional
Sitophilus oryzae [18] = assay: Insecticidal activity against Sitophilus oryzae (rice weevil) assessed as mortality at 2000 ug/g after 15 days by food poison technique relative to acetone-treated control; type: functional
Sitophilus oryzae [19] = assay: Insecticidal activity against Sitophilus oryzae (rice weevil) assessed as mortality at 2000 ug/g after 10 days by food poison technique relative to acetone-treated control; type: functional
Sitophilus oryzae [20] = assay: Insecticidal activity against Sitophilus oryzae (rice weevil) assessed as mortality at 2000 ug/g after 5 days by food poison technique relative to acetone-treated control; type: functional
Sitophilus oryzae [21] = assay: Insecticidal activity against Sitophilus oryzae (rice weevil) assessed as mortality at 1000 ug/g after 20 days by food poison technique relative to acetone-treated control; type: functional
Sitophilus oryzae [22] = assay: Insecticidal activity against Sitophilus oryzae (rice weevil) assessed as mortality at 1000 ug/g after 15 days by food poison technique relative to acetone-treated control; type: functional
Sitophilus oryzae [23] = assay: Insecticidal activity against Sitophilus oryzae (rice weevil) assessed as mortality at 1000 ug/g after 10 days by food poison technique relative to acetone-treated control; type: functional
Sitophilus oryzae [24] = assay: Insecticidal activity against Sitophilus oryzae (rice weevil) assessed as mortality at 1000 ug/g after 5 days by food poison technique relative to acetone-treated control; type: functional
Sitophilus oryzae [25] = assay: Insecticidal activity against Sitophilus oryzae (rice weevil) assessed as mortality at 600 ug/g after 20 days by food poison technique relative to acetone-treated control; type: functional
Sitophilus oryzae [26] = assay: Insecticidal activity against Sitophilus oryzae (rice weevil) assessed as mortality at 600 ug/g after 15 days by food poison technique relative to acetone-treated control; type: functional
Sitophilus oryzae [27] = assay: Insecticidal activity against Sitophilus oryzae (rice weevil) assessed as mortality at 600 ug/g after 10 days by food poison technique relative to acetone-treated control; type: functional
Sitophilus oryzae [28] = assay: Insecticidal activity against Sitophilus oryzae (rice weevil) assessed as mortality at 600 ug/g after 5 days by food poison technique relative to acetone-treated control; type: functional
Sitophilus oryzae [29] = assay: Insecticidal activity against Sitophilus oryzae (rice weevil) assessed as mortality at 400 ug/g after 20 days by food poison technique relative to acetone-treated control; type: functional
Sitophilus oryzae [30] = assay: Insecticidal activity against Sitophilus oryzae (rice weevil) assessed as mortality at 400 ug/g after 15 days by food poison technique relative to acetone-treated control; type: functional
Sitophilus oryzae [31] = assay: Insecticidal activity against Sitophilus oryzae (rice weevil) assessed as mortality at 400 ug/g after 10 days by food poison technique relative to acetone-treated control; type: functional
Sitophilus oryzae [32] = assay: Insecticidal activity against Sitophilus oryzae (rice weevil) assessed as mortality at 400 ug/g after 5 days by food poison technique relative to acetone-treated control; type: functional
Sitophilus oryzae [33] = assay: Insecticidal activity against Sitophilus oryzae (rice weevil) assessed as mortality at 200 ug/g after 20 days by food poison technique relative to acetone-treated control; type: functional
Sitophilus oryzae [34] = assay: Insecticidal activity against Sitophilus oryzae (rice weevil) assessed as mortality at 200 ug/g after 15 days by food poison technique relative to acetone-treated control; type: functional
Sitophilus oryzae [35] = assay: Insecticidal activity against Sitophilus oryzae (rice weevil) assessed as mortality at 200 ug/g after 10 days by food poison technique relative to control; type: functional
Sitophilus oryzae [36] = assay: Insecticidal activity against Sitophilus oryzae (rice weevil) assessed as mortality at 200 ug/g after 5 days by food poison technique relative to acetone-treated control; type: functional
Sitophilus oryzae [37] = assay: Repellent activity against Sitophilus oryzae (rice weevil) assessed as settling responses at 125 ug/g preincubated for 12 hr prior to inoculation measured after 24 hr by food preference chamber method (reference value: 49.45 +/- 2.65 %); type: functional
Sitophilus oryzae [38] = assay: Repellent activity against Sitophilus oryzae (rice weevil) assessed as settling responses at 100 ug/g preincubated for 12 hr prior to inoculation measured after 24 hr by food preference chamber method (reference value: 49.45 +/- 2.65 %); type: functional
Sitophilus oryzae [39] = assay: Repellent activity against Sitophilus oryzae (rice weevil) assessed as settling responses at 75 ug/g preincubated for 12 hr prior to inoculation measured after 24 hr by food preference chamber method (reference value: 49.45 +/- 2.65 %); type: functional
Sitophilus oryzae [40] = assay: Repellent activity against Sitophilus oryzae (rice weevil) assessed as settling responses at 50 ug/g preincubated for 12 hr prior to inoculation measured after 24 hr by food preference chamber method (reference value: 49.45 +/- 2.65 %); type: functional
Triticum aestivum [41] = assay: Phytotoxicity in Triticum aestivum (wheat) assessed as shoot growth at 500 ug/ml pre-soaked for 60 min measured after 120 hr relative to acetone-treated control; type: organism-based; conditions: in vivo
Triticum aestivum [42] = assay: Phytotoxicity in Triticum aestivum (wheat) assessed as shoot growth at 500 ug/ml pre-soaked for 60 min measured after 96 hr relative to acetone-treated control; type: organism-based; conditions: in vivo
Triticum aestivum [43] = assay: Phytotoxicity in Triticum aestivum (wheat) assessed as shoot growth at 500 ug/ml pre-soaked for 60 min measured after 72 hr relative to acetone-treated control; type: organism-based; conditions: in vivo
Triticum aestivum [44] = assay: Phytotoxicity in Triticum aestivum (wheat) assessed as shoot growth at 500 ug/ml pre-soaked for 60 min measured after 48 hr relative to acetone-treated control; type: organism-based; conditions: in vivo
Triticum aestivum [45] = assay: Phytotoxicity in Triticum aestivum (wheat) assessed as shoot growth at 500 ug/ml pre-soaked for 30 min measured after 120 hr relative to acetone-treated control; type: organism-based; conditions: in vivo
Triticum aestivum [46] = assay: Phytotoxicity in Triticum aestivum (wheat) assessed as shoot growth at 500 ug/ml pre-soaked for 30 min measured after 96 hr relative to acetone-treated control; type: organism-based; conditions: in vivo
Triticum aestivum [47] = assay: Phytotoxicity in Triticum aestivum (wheat) assessed as shoot growth at 500 ug/ml pre-soaked for 30 min measured after 72 hr relative to acetone-treated control; type: organism-based; conditions: in vivo
Triticum aestivum [48] = assay: Phytotoxicity in Triticum aestivum (wheat) assessed as shoot growth at 500 ug/ml pre-soaked for 30 min measured after 48 hr relative to acetone-treated control; type: organism-based; conditions: in vivo
Triticum aestivum [49] = assay: Phytotoxicity in Triticum aestivum (wheat) assessed as root growth at 500 ug/ml pre-soaked for 60 min measured after 120 hr relative to acetone-treated control; type: organism-based; conditions: in vivo
Triticum aestivum [50] = assay: Phytotoxicity in Triticum aestivum (wheat) assessed as root growth at 500 ug/ml pre-soaked for 60 min measured after 72 hr relative to acetone-treated control; type: organism-based; conditions: in vivo
Triticum aestivum [51] = assay: Phytotoxicity in Triticum aestivum (wheat) assessed as root growth at 500 ug/ml pre-soaked for 60 min measured after 96 hr relative to acetone-treated control; type: organism-based; conditions: in vivo
Triticum aestivum [52] = assay: Phytotoxicity in Triticum aestivum (wheat) assessed as root growth at 500 ug/ml pre-soaked for 60 min measured after 48 hr relative to acetone-treated control; type: organism-based; conditions: in vivo
Triticum aestivum [53] = assay: Phytotoxicity in Triticum aestivum (wheat) assessed as root growth at 500 ug/ml pre-soaked for 30 min measured after 120 hr relative to acetone-treated control; type: organism-based; conditions: in vivo
Triticum aestivum [54] = assay: Phytotoxicity in Triticum aestivum (wheat) assessed as root growth at 500 ug/ml pre-soaked for 30 min measured after 72 hr relative to acetone-treated control; type: organism-based; conditions: in vivo
Triticum aestivum [55] = assay: Phytotoxicity in Triticum aestivum (wheat) assessed as root growth at 500 ug/ml pre-soaked for 30 min measured after 96 hr relative to acetone-treated control; type: organism-based; conditions: in vivo
Triticum aestivum [56] = assay: Phytotoxicity in Triticum aestivum (wheat) assessed as root growth at 500 ug/ml pre-soaked for 30 min measured after 48 hr relative to acetone-treated control; type: organism-based; conditions: in vivo
Triticum aestivum [57] = assay: Phytotoxicity in Triticum aestivum (wheat) assessed as germination rate at 500 ug/ml pre-soaked for 60 min measured after 96 hr relative to acetone-treated control; type: organism-based; conditions: in vivo
Triticum aestivum [58] = assay: Phytotoxicity in Triticum aestivum (wheat) assessed as germination rate at 500 ug/ml pre-soaked for 60 min measured after 72 hr relative to acetone-treated control; type: organism-based; conditions: in vivo
Triticum aestivum [59] = assay: Phytotoxicity in Triticum aestivum (wheat) assessed as germination rate at 500 ug/ml pre-soaked for 60 min measured after 48 hr relative to acetone-treated control; type: organism-based; conditions: in vivo
Triticum aestivum [60] = assay: Phytotoxicity in Triticum aestivum (wheat) assessed as germination rate at 500 ug/ml pre-soaked for 60 min measured after 24 hr relative to acetone-treated control; type: organism-based; conditions: in vivo
Triticum aestivum [61] = assay: Phytotoxicity in Triticum aestivum (wheat) assessed as germination rate at 500 ug/ml pre-soaked for 30 min measured after 96 hr relative to acetone-treated control; type: organism-based; conditions: in vivo

## C=C1C(=O)O[C@@H]2C[C@@]3(C)CCCC(=C)[C@@H]3C[C@H]12 [ISOALANTOLACTONE]
Triticum aestivum [1]
  Activity: 100%
Triticum aestivum [2]
  Activity: 94%
Triticum aestivum [3]
  Activity: 106.7%
Sitophilus oryzae [4]
  Activity: Dose-dependent effect
Sitophilus oryzae [5]
  LC50: 610.51 µg/g
Sitophilus oryzae [6]
  LC50: 655.31 µg/g
Sitophilus oryzae [7]
  LC50: 1234.57 µg/g
Sitophilus oryzae [8]
  LC50: 707.21 µg/g
Sitophilus oryzae [9]
  mortality: 100%
Sitophilus oryzae [10]
  mortality: 100%
Sitophilus oryzae [11]
  mortality: 100%
Sitophilus oryzae [12]
  mortality: 86.54%
Sitophilus oryzae [13]
  mortality: 100%
Sitophilus oryzae [14]
  mortality: 100%
Sitophilus oryzae [15]
  mortality: 100%
Sitophilus oryzae [16]
  mortality: 100%
Sitophilus oryzae [17]
  mortality: 100%
Sitophilus oryzae [18]
  mortality: 100%
Sitophilus oryzae [19]
  mortality: 100%
Sitophilus oryzae [20]
  mortality: 76.19%
Sitophilus oryzae [21]
  mortality: 74.36%
Sitophilus oryzae [22]
  mortality: 69.23%
Sitophilus oryzae [23]
  mortality: 64.28%
Sitophilus oryzae [24]
  mortality: 42.86%
Sitophilus oryzae [25]
  mortality: 58.97%
Sitophilus oryzae [26]
  mortality: 56.41%
Sitophilus oryzae [27]
  mortality: 55.38%
Sitophilus oryzae [28]
  mortality: 33.33%
Sitophilus oryzae [29]
  mortality: 35.91%
Sitophilus oryzae [30]
  mortality: 30.77%
Sitophilus oryzae [31]
  mortality: 23.81%
Sitophilus oryzae [32]
  mortality: 19.04%
Sitophilus oryzae [33]
  mortality: 17.95%
Sitophilus oryzae [34]
  mortality: 17.95%
Sitophilus oryzae [35]
  mortality: 16.67%
Sitophilus oryzae [36]
  mortality: 11.9%
Sitophilus oryzae [37]
  Activity: 13.22%
Sitophilus oryzae [38]
  Activity: 12.13%
Sitophilus oryzae [39]
  Activity: 12.41%
Sitophilus oryzae [40]
  Activity: 12.87%
Triticum aestivum [41]
  Activity: 63.5%
Triticum aestivum [42]
  Activity: 47.9%
Triticum aestivum [43]
  Activity: 51.7%
Triticum aestivum [44]
  Activity: 53.7%
Triticum aestivum [45]
  Activity: 100.4%
Triticum aestivum [46]
  Activity: 96%
Triticum aestivum [47]
  Activity: 102%
Triticum aestivum [48]
  Activity: 100%
Triticum aestivum [49]
  Activity: 83.9%
Triticum aestivum [50]
  Activity: 63.7%
Triticum aestivum [51]
  Activity: 76.9%
Triticum aestivum [52]
  Activity: 46%
Triticum aestivum [53]
  Activity: 101.2%
Triticum aestivum [54]
  Activity: 97.4%
Triticum aestivum [55]
  Activity: 99.1%
Triticum aestivum [56]
  Activity: 100.7%
Triticum aestivum [57]
  Activity: 82.5%
Triticum aestivum [58]
  Activity: 84.6%
Triticum aestivum [59]
  Activity: 76.1%
Triticum aestivum [60]
  Activity: 25%
Triticum aestivum [61]
  Activity: 100%
